From patent US20220249415A1, “COMPOSITION OF AZELAIC ACID HAVING ADIPOSE TRIGLYCERIDE HYDROLYSIS EFFECT” (Korea University Research and Business Foundation, priority 2018, published 2022)

Experiments:
OR2S2 = molecular target: T1, OR2S2 (Homo sapiens, UniProt Q9NQN1); test: siRNA knock-down of OR2S2 in HepG2 cells, fatty acid oxidation-related gene expression; format: cell-based; settings: HepG2 cells during knock-down of OR2S2
T1 construct: endogenous in cells; host or cells: HepG2
T1 sequence (Q9NQN1 1-319): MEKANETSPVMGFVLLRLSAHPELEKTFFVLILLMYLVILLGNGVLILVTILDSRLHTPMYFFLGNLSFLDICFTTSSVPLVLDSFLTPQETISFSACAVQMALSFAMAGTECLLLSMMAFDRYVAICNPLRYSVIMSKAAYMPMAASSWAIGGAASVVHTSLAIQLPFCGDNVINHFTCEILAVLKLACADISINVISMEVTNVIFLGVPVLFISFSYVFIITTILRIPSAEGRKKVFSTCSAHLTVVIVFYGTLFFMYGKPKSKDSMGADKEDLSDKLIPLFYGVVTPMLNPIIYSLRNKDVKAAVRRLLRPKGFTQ
Source text: The gene expression of OR1E1, OR1K1, OR2K2, OR2S2, OR13C5, and OR51E2, corresponding to the top 6 receptors among 10 human olfactory receptors selected to be expressed in both adipose tissue and liver tissue while interacting with azelaic acid, was knocked down with siRNA in human-derived liver cell and adipocyte lines, namely HepG2 cells and hAMSC cells, respectively. Here, siRNAs that were used were OR1E2 siRNA (sc-93932), OR1K2 (sc-92810), OR2K2 (sc-92852), OR2S2 (sc-92505), OR13C5 (sc-92899), and OR51E2 (sc-76265), purchased from Santa Cruz Biotechnology Inc. (Dallas, Tx USA).
After knock-down treatment, the cell lines were treated with azelaic acid, and triglyceride hydrolysis and fatty acid oxidation-related gene expression in HepG2 cells as a human-derived liver cell line and hAMSC cells as a human-derived adipocyte line were measured.

3T3-L1 adipocytes = test: Glycerol release (triglyceride hydrolysis) from 3T3-L1 adipocytes; format: cell-based, mouse; settings: 50 μM azelaic acid, 2 hours
Experimental: Further, in order to confirm whether or not azelaic acid has an effect of hydrolyzing triglycerides, a release amount of glycerol corresponding to a product of triglyceride hydrolysis was measured.

SMILES: O=C(O)CCCCCCCC(=O)O [azelaic acid, nonanedioic acid]
- expression of fatty acid oxidation-related genes (PPARa, CTP1, Acox2) upon treatment with azelaic acid (OR2S2): did not change
- glycerol (product of triglyceride hydrolysis) increased as compared to the control (3T3-L1 adipocytes): 46.7%
